Laboratory results reported in patent US10201586B2 (dated 2019).
Where a SMILES comes first, the peptide text is derived from it.

Each molecule was assayed against T1, TFPI (Homo sapiens, UniProt P10646) (assay: % Inhibition @ 2.5µM).

Molecule	% Inhibition @ […] [%]
Ac-SGYASFPLAVQLHVSKRSKEMALARAYYKTS-NH2 (SEQ ID NO: 2021) [JBT0685]	4

Each molecule was assayed against T1, TFPI (assay: Extrinsic Tenase Inhibition assay | % Inhibition @ 2.5µM).

Molecule	Extrinsic Tenase Inhibition assay | % Inhibition @ […] [%]
Ac-SGYASFPLAVQLHVSKRSKEMALARAYYKTS-NH2 (SEQ ID NO: 2021) [JBT0685]	1

The molecules below were run against T1, TFPI (assay: IC50 [nM]).
Target sequence in this assay (P10646 29-304 limits assumed): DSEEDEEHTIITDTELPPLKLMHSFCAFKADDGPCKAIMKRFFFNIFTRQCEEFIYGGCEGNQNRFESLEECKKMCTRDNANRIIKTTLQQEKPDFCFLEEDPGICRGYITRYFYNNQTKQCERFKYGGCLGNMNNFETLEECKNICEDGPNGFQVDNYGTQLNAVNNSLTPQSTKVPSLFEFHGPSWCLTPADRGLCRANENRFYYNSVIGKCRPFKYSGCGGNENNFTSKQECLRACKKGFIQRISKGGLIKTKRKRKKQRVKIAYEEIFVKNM

Molecule	IC50 [µM]
CSCC[C@H](NC(=O)[C@H](CCC(=O)O)NC(=O)[C@H](CCCCN)NC(=O)[C@H](CO)NC(=O)[C@H](CCCNC(=N)N)NC(=O)[C@H](CCCCN)NC(=O)[C@H](CO)NC(=O)[C@@H](NC(=O)[C@H](Cc1c[nH]cn1)NC(=O)[C@H](CC(C)C)NC(=O)[C@H](CCC(N)=O)NC(=O)[C@@H](NC(=O)[C@H](C)NC(=O)[C@H](CC(C)C)NC(=O)[C@@H]1CCCN1C(=O)[C@H](Cc1ccccc1)NC(=O)[C@H](CO)NC(=O)[C@H](C)NC(=O)[C@H](C)NC(=O)CNC(=O)[C@H](CO)NC(C)=O)C(C)C)C(C)C)C(=O)N[C@@H](C)C(=O)N[C@@H](CC(C)C)C(=O)N[C@@H](C)C(=O)N[C@@H](CCCNC(=N)N)C(=O)N[C@@H](CC(C)C)C(=O)N[C@@H](Cc1ccc(O)cc1)C(=O)N[C@@H](Cc1ccc(O)cc1)C(=O)N[C@@H](CCCCN)C(=O)N[C@H](C(=O)N[C@@H](CO)C(N)=O)[C@@H](C)O [JBT0662 | 2131] (Ac-SGAASFPLAVQLHVSKRSKEMALARLYYKTS-NH2)	13.8
CSCC[C@H](NC(=O)[C@H](CCC(=O)O)NC(=O)[C@H](CCCCN)NC(=O)[C@H](C)NC(=O)[C@H](CCCNC(=N)N)NC(=O)[C@H](CCCCN)NC(=O)[C@H](CO)NC(=O)[C@@H](NC(=O)[C@H](Cc1c[nH]cn1)NC(=O)[C@H](CC(C)C)NC(=O)[C@H](CCC(N)=O)NC(=O)[C@@H](NC(=O)[C@H](C)NC(=O)[C@H](CC(C)C)NC(=O)[C@@H]1CCCN1C(=O)[C@H](Cc1ccccc1)NC(=O)[C@H](CO)NC(=O)[C@H](C)NC(=O)[C@H](Cc1ccc(O)cc1)NC(=O)CNC(=O)[C@H](CO)NC(C)=O)C(C)C)C(C)C)C(=O)N[C@@H](C)C(=O)N[C@@H](CC(C)C)C(=O)N[C@@H](C)C(=O)N[C@@H](CCCNC(=N)N)C(=O)N[C@@H](CC(C)C)C(=O)N[C@@H](Cc1ccc(O)cc1)C(=O)N[C@@H](Cc1ccc(O)cc1)C(=O)N[C@@H](CCCCN)C(=O)N[C@H](C(=O)N[C@@H](CO)C(N)=O)[C@@H](C)O [JBT0677 | 2009] (Ac-SGYASFPLAVQLHVSKRAKEMALARLYYKTS-NH2)	1.91
CSCC[C@H](NC(=O)[C@H](CCC(=O)O)NC(=O)[C@H](CCCCN)NC(=O)[C@H](CO)NC(=O)[C@H](CCCNC(=N)N)NC(=O)[C@H](CCCCN)NC(=O)[C@H](CO)NC(=O)[C@@H](NC(=O)[C@H](Cc1c[nH]cn1)NC(=O)[C@H](CC(C)C)NC(=O)[C@H](C)NC(=O)[C@@H](NC(=O)[C@H](C)NC(=O)[C@H](CC(C)C)NC(=O)[C@@H]1CCCN1C(=O)[C@H](Cc1ccccc1)NC(=O)[C@H](CO)NC(=O)[C@H](C)NC(=O)[C@H](Cc1ccc(O)cc1)NC(=O)CNC(=O)[C@H](CO)NC(C)=O)C(C)C)C(C)C)C(=O)N[C@@H](C)C(=O)N[C@@H](CC(C)C)C(=O)N[C@@H](C)C(=O)N[C@@H](CCCNC(=N)N)C(=O)N[C@@H](CC(C)C)C(=O)N[C@@H](Cc1ccc(O)cc1)C(=O)N[C@@H](Cc1ccc(O)cc1)C(=O)N[C@@H](CCCCN)C(=O)N[C@H](C(=O)N[C@@H](CO)C(N)=O)[C@@H](C)O [JBT0670 | 2007] (Ac-SGYASFPLAVALHVSKRSKEMALARLYYKTS-NH2)	2.51
CSCC[C@H](NC(=O)[C@H](CCC(=O)O)NC(=O)[C@H](CCCCN)NC(=O)[C@H](CO)NC(=O)[C@H](CCCNC(=N)N)NC(=O)[C@H](CCCCN)NC(=O)[C@H](CO)NC(=O)[C@@H](NC(=O)[C@H](Cc1c[nH]cn1)NC(=O)[C@H](CC(C)C)NC(=O)[C@H](CCC(N)=O)NC(=O)[C@@H](NC(=O)[C@H](C)NC(=O)[C@H](CC(C)C)NC(=O)[C@@H]1CCCN1C(=O)[C@H](Cc1ccccc1)NC(=O)[C@H](CO)NC(=O)[C@H](C)NC(=O)[C@H](Cc1ccc(O)cc1)NC(=O)CNC(=O)[C@H](CO)NC(C)=O)C(C)C)C(C)C)C(=O)N[C@@H](C)C(=O)N[C@@H](CC(C)C)C(=O)N[C@@H](C)C(=O)N[C@@H](CCCNC(=N)N)C(=O)N[C@@H](CC(C)C)C(=O)N[C@@H](C)C(=O)N[C@@H](Cc1ccc(O)cc1)C(=O)N[C@@H](CCCCN)C(=O)N[C@H](C(=O)N[C@@H](CO)C(N)=O)[C@@H](C)O [JBT0686 | 2140] (Ac-SGYASFPLAVQLHVSKRSKEMALARLAYKTS-NH2)	13.5
CSCC[C@H](NC(=O)[C@H](CCC(=O)O)NC(=O)[C@H](CCCCN)NC(=O)[C@H](CO)NC(=O)[C@H](CCCNC(=N)N)NC(=O)[C@H](CCCCN)NC(=O)[C@H](CO)NC(=O)[C@@H](NC(=O)[C@H](Cc1c[nH]cn1)NC(=O)[C@H](CC(C)C)NC(=O)[C@H](CCC(N)=O)NC(=O)[C@@H](NC(=O)[C@H](C)NC(=O)[C@H](CC(C)C)NC(=O)[C@@H]1CCCN1C(=O)[C@H](Cc1ccccc1)NC(=O)[C@H](CO)NC(=O)[C@H](C)NC(=O)[C@H](Cc1ccc(O)cc1)NC(=O)CNC(=O)[C@H](CO)NC(=O)[C@H](CO)NC(=O)CN)C(C)C)C(C)C)C(=O)N[C@@H](C)C(=O)N[C@@H](CC(C)C)C(=O)N[C@@H](C)C(=O)N[C@@H](CCCNC(=N)N)C(=O)N[C@@H](CC(C)C)C(=O)N[C@@H](Cc1ccc(O)cc1)C(=O)N[C@@H](Cc1ccc(O)cc1)C(=O)N[C@@H](CCCCN)C(=O)N[C@H](C(=O)N[C@@H](CO)C(=O)O)[C@@H](C)O [JBT0788] (H-GSSGYASFPLAVQLHVSKRSKEMALARLYYKTS-OH)	16.2
CSCC[C@H](NC(=O)[C@H](CCC(=O)O)NC(=O)[C@H](CCCCN)NC(=O)[C@H](CO)NC(=O)[C@H](CCCNC(=N)N)NC(=O)[C@H](CCCCN)NC(=O)[C@H](C)NC(=O)[C@@H](NC(=O)[C@H](Cc1c[nH]cn1)NC(=O)[C@H](CC(C)C)NC(=O)[C@H](CCC(N)=O)NC(=O)[C@@H](NC(=O)[C@H](C)NC(=O)[C@H](CC(C)C)NC(=O)[C@@H]1CCCN1C(=O)[C@H](Cc1ccccc1)NC(=O)[C@H](CO)NC(=O)[C@H](C)NC(=O)[C@H](Cc1ccc(O)cc1)NC(=O)CNC(=O)[C@H](CO)NC(C)=O)C(C)C)C(C)C)C(=O)N[C@@H](C)C(=O)N[C@@H](CC(C)C)C(=O)N[C@@H](C)C(=O)N[C@@H](CCCNC(=N)N)C(=O)N[C@@H](CC(C)C)C(=O)N[C@@H](Cc1ccc(O)cc1)C(=O)N[C@@H](Cc1ccc(O)cc1)C(=O)N[C@@H](CCCCN)C(=O)N[C@H](C(=O)N[C@@H](CO)C(N)=O)[C@@H](C)O [JBT0674 | 2008] (Ac-SGYASFPLAVQLHVAKRSKEMALARLYYKTS-NH2)	1.17
CSCC[C@H](NC(=O)[C@H](CCC(=O)O)NC(=O)[C@H](CCCCN)NC(=O)[C@H](CO)NC(=O)[C@H](CCCNC(=N)N)NC(=O)[C@H](CCCCN)NC(=O)[C@H](CO)NC(=O)[C@@H](NC(=O)[C@H](Cc1c[nH]cn1)NC(=O)[C@H](C)NC(=O)[C@H](CCC(N)=O)NC(=O)[C@@H](NC(=O)[C@H](C)NC(=O)[C@H](CC(C)C)NC(=O)[C@@H]1CCCN1C(=O)[C@H](Cc1ccccc1)NC(=O)[C@H](CO)NC(=O)[C@H](C)NC(=O)[C@H](Cc1ccc(O)cc1)NC(=O)CNC(=O)[C@H](CO)NC(C)=O)C(C)C)C(C)C)C(=O)N[C@@H](C)C(=O)N[C@@H](CC(C)C)C(=O)N[C@@H](C)C(=O)N[C@@H](CCCNC(=N)N)C(=O)N[C@@H](CC(C)C)C(=O)N[C@@H](Cc1ccc(O)cc1)C(=O)N[C@@H](Cc1ccc(O)cc1)C(=O)N[C@@H](CCCCN)C(=O)N[C@H](C(=O)N[C@@H](CO)C(N)=O)[C@@H](C)O [JBT0671 | 2019] (Ac-SGYASFPLAVQAHVSKRSKEMALARLYYKTS-NH2)	5.84
CSCC[C@H](NC(=O)[C@H](CCC(=O)O)NC(=O)[C@H](CCCCN)NC(=O)[C@H](CO)NC(=O)[C@H](CCCNC(=N)N)NC(=O)[C@H](CCCCN)NC(=O)[C@H](CO)NC(=O)[C@@H](NC(=O)[C@H](Cc1c[nH]cn1)NC(=O)[C@H](CC(C)C)NC(=O)[C@H](CCC(N)=O)NC(=O)[C@@H](NC(=O)[C@H](C)NC(=O)[C@H](CC(C)C)NC(=O)[C@@H]1CCCN1C(=O)[C@H](Cc1ccccc1)NC(=O)[C@H](CO)NC(=O)[C@H](C)NC(=O)[C@H](Cc1ccc(O)cc1)NC(=O)CNC(=O)[C@H](CO)NC(C)=O)C(C)C)C(C)C)C(=O)N[C@@H](C)C(=O)N[C@@H](CC(C)C)C(=O)N[C@@H](C)C(=O)N[C@@H](CCCNC(=N)N)C(=O)N[C@@H](C)C(=O)N[C@@H](Cc1ccc(O)cc1)C(=O)N[C@@H](Cc1ccc(O)cc1)C(=O)N[C@@H](CCCCN)C(=O)N[C@H](C(=O)N[C@@H](CO)C(N)=O)[C@@H](C)O [JBT0685 | 2021] (Ac-SGYASFPLAVQLHVSKRSKEMALARAYYKTS-NH2)	9.13
CSCC[C@H](NC(=O)[C@H](CCC(=O)O)NC(=O)[C@H](CCCCN)NC(=O)[C@H](CO)NC(=O)[C@H](C)NC(=O)[C@H](CCCCN)NC(=O)[C@H](CO)NC(=O)[C@@H](NC(=O)[C@H](Cc1c[nH]cn1)NC(=O)[C@H](CC(C)C)NC(=O)[C@H](CCC(N)=O)NC(=O)[C@@H](NC(=O)[C@H](C)NC(=O)[C@H](CC(C)C)NC(=O)[C@@H]1CCCN1C(=O)[C@H](Cc1ccccc1)NC(=O)[C@H](CO)NC(=O)[C@H](C)NC(=O)[C@H](Cc1ccc(O)cc1)NC(=O)CNC(=O)[C@H](CO)NC(C)=O)C(C)C)C(C)C)C(=O)N[C@@H](C)C(=O)N[C@@H](CC(C)C)C(=O)N[C@@H](C)C(=O)N[C@@H](CCCNC(=N)N)C(=O)N[C@@H](CC(C)C)C(=O)N[C@@H](Cc1ccc(O)cc1)C(=O)N[C@@H](Cc1ccc(O)cc1)C(=O)N[C@@H](CCCCN)C(=O)N[C@H](C(=O)N[C@@H](CO)C(N)=O)[C@@H](C)O [JBT0676 | 2137] (Ac-SGYASFPLAVQLHVSKASKEMALARLYYKTS-NH2)	37.4
CSCC[C@H](NC(=O)[C@H](CCC(=O)O)NC(=O)[C@H](CCCCN)NC(=O)[C@H](CO)NC(=O)[C@H](CCCNC(=N)N)NC(=O)[C@H](C)NC(=O)[C@H](CO)NC(=O)[C@@H](NC(=O)[C@H](Cc1c[nH]cn1)NC(=O)[C@H](CC(C)C)NC(=O)[C@H](CCC(N)=O)NC(=O)[C@@H](NC(=O)[C@H](C)NC(=O)[C@H](CC(C)C)NC(=O)[C@@H]1CCCN1C(=O)[C@H](Cc1ccccc1)NC(=O)[C@H](CO)NC(=O)[C@H](C)NC(=O)[C@H](Cc1ccc(O)cc1)NC(=O)CNC(=O)[C@H](CO)NC(C)=O)C(C)C)C(C)C)C(=O)N[C@@H](C)C(=O)N[C@@H](CC(C)C)C(=O)N[C@@H](C)C(=O)N[C@@H](CCCNC(=N)N)C(=O)N[C@@H](CC(C)C)C(=O)N[C@@H](Cc1ccc(O)cc1)C(=O)N[C@@H](Cc1ccc(O)cc1)C(=O)N[C@@H](CCCCN)C(=O)N[C@H](C(=O)N[C@@H](CO)C(N)=O)[C@@H](C)O [JBT0675 | 2136] (Ac-SGYASFPLAVQLHVSARSKEMALARLYYKTS-NH2)	18.3
